We go through 1 compound from US7432300B2, “Gossypol co-crystals and the use thereof” (The Regents of the University of Michigan, priority 2004, dated 2008).

The format of this data set is physicochemical. On the procedure: (−)-Gossypol acetic acid co-crystals were yellow or pale yellow and needle shaped. […] The co-crystals were insoluble in water. The uncorrected melting point of the co-crystals was determined to be 178-180° C. using a Mel-Temp apparatus.

Molecules are shown by their SMILES.

With `Cc1cc2c(C(C)C)c(O)c(O)c(C=O)c2c(O)c1-c1c(C)cc2c(C(C)C)c(O)c(O)c(C=O)c2c1O` [(−)-Gossypol acetic acid co-crystals, (−)-gossypol acetic acid], the solubility in acetone entry was “readily soluble”, the solubility in chloroform result is “slightly soluble”, the solubility in ethanol entry is “slightly soluble” and the solubility in ether result is given as “readily soluble”. Besides, the solubility in petroleum entry is “sparsely soluble” and the solubility in water entry is given as “insoluble”.
